Experimental findings from the supplement of paper PMC10307832 are described below.

Common to all, as to assay: relative viability (nuclei count vs DMSO), 5 days (fraction); higher = more cells survive
Compound in experiment [1]: COc1cc2ncn(-c3cc(OCc4ccccc4C(F)(F)F)c(C(N)=O)s3)c2cc1OC + COc1cc2c(Oc3ccc(NC(=O)C4(C(=O)Nc5ccc(F)cc5)CC4)cc3F)ccnc2cc1OCCCN1CCOCC1 [Foretinib] (partner 0.25 µM)
In short, it runs like this: (§1)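 The day after seeding in 1536-well plates, lung cancer cell lines were treated by pin tool with a single drug, or with a fixed anchor-drug dose together with five library-drug doses (not always all listed) in √10 steps. After 5 days, a combined fix-and-stain solution (final 0.05% Triton X-100, 1% formaldehyde, 1 ug/ml Hoechst) was added. Nuclei counted on 4× images gave relative viability as treated counts over vehicle counts, reported as the median of duplicate plates.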

Compound in experiment [2]: COc1cc2ncn(-c3cc(OCc4ccccc4C(F)(F)F)c(C(N)=O)s3)c2cc1OC + Cc1nc(NC(=O)N2CCC[C@H]2C(N)=O)sc1-c1ccnc(C(C)(C)C(F)(F)F)c1 [Alpelisib] (partner 2 µM)
The gist of the method:
as §1

Compound in experiment [3]: COc1cc2ncn(-c3cc(OCc4ccccc4C(F)(F)F)c(C(N)=O)s3)c2cc1OC + Nc1nc2[nH]cc(CCc3ccc(C(=O)N[C@@H](CCC(=O)O)C(=O)O)cc3)c2c(=O)[nH]1 [Pemetrexed] (partner 0.2 µM)
In short, it runs like this: as §1

Compound in experiment [4]: COc1cc2ncn(-c3cc(OCc4ccccc4C(F)(F)F)c(C(N)=O)s3)c2cc1OC + O=C(c1cc(Cc2n[nH]c(=O)c3ccccc23)ccc1F)N1CCN(C(=O)C2CC2)CC1 [Olaparib] (partner 8 µM)
In short, it runs like this: as §1

Take NCI-H2126: the relative viability in experiment [1] (first compound 0.05 µM) stood at 1.21; in experiment [1] (first compound 0.1581 µM), 1.26; in experiment [1] (first compound 0.5 µM), 0.672; in experiment [1] (first compound 1.581 µM), 0.365; in experiment [1] (first compound 5 µM) it was 0.318; in experiment [2] (first compound 0.05 µM), 0.731. The relative viability in experiment [2] (first compound 0.1581 µM) was 0.803; in experiment [2] (first compound 0.5 µM), 0.668; in experiment [2] (first compound 1.581 µM) it was 0.293; in experiment [2] (first compound 5 µM), 0.234; in experiment [3] (first compound 0.05 µM), 0.75; in experiment [3] (first compound 0.1581 µM), 0.655. Also, the relative viability is 0.498 in experiment [3] (first compound 0.5 µM); 0.288 in experiment [3] (first compound 1.581 µM); 0.251 in experiment [3] (first compound 5 µM); 0.813 in experiment [4] (first compound 0.05 µM); 0.86 in experiment [4] (first compound 0.1581 µM); 0.449 in experiment [4] (first compound 0.5 µM). Further, the values for the relative viability in experiment [4] (first compound 1.581 µM) and in experiment [4] (first compound 5 µM) were 0.238 and 0.241, respectively.

Regarding LXF-289, the relative viability turned out to be 0.92 in experiment [1] (first compound 0.05 µM); 0.858 in experiment [1] (first compound 0.1581 µM); 0.483 in experiment [1] (first compound 0.5 µM); 0.158 in experiment [1] (first compound 1.581 µM); 0.0736 in experiment [1] (first compound 5 µM); 0.994 in experiment [2] (first compound 0.05 µM). For the same cell line, the relative viability in experiment [2] (first compound 0.1581 µM) is 0.801; in experiment [2] (first compound 0.5 µM), 0.138; in experiment [2] (first compound 1.581 µM), 0.0881; in experiment [2] (first compound 5 µM), 0.0604; in experiment [3] (first compound 0.05 µM), 0.897; in experiment [3] (first compound 0.1581 µM) it was 0.674. The relative viability in experiment [3] (first compound 0.5 µM) was determined as 0.597; in experiment [3] (first compound 1.581 µM), 0.184; in experiment [3] (first compound 5 µM), 0.0849; in experiment [4] (first compound 0.05 µM), 0.704; in experiment [4] (first compound 0.1581 µM) it was 0.817; in experiment [4] (first compound 0.5 µM), 0.269. Further, the relative viability was 0.0639 in experiment [4] (first compound 1.581 µM) and 0.0504 in experiment [4] (first compound 5 µM).

Take PC-3 [JPC-3]: the relative viability in experiment [1] (first compound 0.05 µM) came out at 0.96; in experiment [1] (first compound 0.1581 µM), 0.992; in experiment [1] (first compound 0.5 µM) it was 0.402; in experiment [1] (first compound 1.581 µM), 0.238; in experiment [1] (first compound 5 µM) it was 0.233; in experiment [2] (first compound 0.05 µM), 0.983. Also, the relative viability in experiment [2] (first compound 0.1581 µM) turned out to be 0.98; in experiment [2] (first compound 0.5 µM), 0.707; in experiment [2] (first compound 1.581 µM), 0.307; in experiment [2] (first compound 5 µM), 0.318; in experiment [3] (first compound 0.05 µM), 1.31; in experiment [3] (first compound 0.1581 µM), 1.1. Further, the relative viability in experiment [3] (first compound 0.5 µM) is 0.611; in experiment [3] (first compound 1.581 µM), 0.28; in experiment [3] (first compound 5 µM) it was 0.254; in experiment [4] (first compound 0.05 µM), 0.955; in experiment [4] (first compound 0.1581 µM) it was 1.01; in experiment [4] (first compound 0.5 µM), 0.588. For the same cell line, the relative viability in experiment [4] (first compound 1.581 µM) was determined as 0.424; in experiment [4] (first compound 5 µM) it was 0.316.

On to HOP-62, for which the relative viability in experiment [1] (first compound 0.05 µM) stood at 1.16; in experiment [1] (first compound 0.1581 µM), 1; in experiment [1] (first compound 0.5 µM) it was 1.03; in experiment [1] (first compound 1.581 µM), 0.295; in experiment [1] (first compound 5 µM), 0.139; in experiment [2] (first compound 0.05 µM), 1.02. Moreover, the relative viability worked out at 0.837 in experiment [2] (first compound 0.1581 µM); 0.752 in experiment [2] (first compound 0.5 µM); 0.199 in experiment [2] (first compound 1.581 µM); 0.116 in experiment [2] (first compound 5 µM); 0.261 in experiment [3] (first compound 0.05 µM); 0.302 in experiment [3] (first compound 0.1581 µM). For the same cell line, the relative viability in experiment [3] (first compound 0.5 µM) is 0.265; in experiment [3] (first compound 1.581 µM), 0.123; in experiment [3] (first compound 5 µM), 0.0991; in experiment [4] (first compound 0.05 µM), 0.387; in experiment [4] (first compound 0.1581 µM), 0.38; in experiment [4] (first compound 0.5 µM) it was 0.302. Moreover, the relative viability in experiment [4] (first compound 5 µM) is 0.116.

In the case of NCI-H358, the relative viability was determined as 0.724 in experiment [1] (first compound 0.05 µM); 0.71 in experiment [1] (first compound 0.1581 µM); 0.484 in experiment [1] (first compound 0.5 µM); 0.0999 in experiment [1] (first compound 1.581 µM); 0.0726 in experiment [1] (first compound 5 µM); 0.852 in experiment [2] (first compound 0.05 µM). Besides, the relative viability in experiment [2] (first compound 0.1581 µM) came out at 1; in experiment [2] (first compound 0.5 µM), 0.386; in experiment [2] (first compound 1.581 µM), 0.127; in experiment [2] (first compound 5 µM), 0.177; in experiment [3] (first compound 0.05 µM), 0.196; in experiment [3] (first compound 0.1581 µM), 0.167. Also, the relative viability in experiment [3] (first compound 0.5 µM) is 0.192; in experiment [3] (first compound 1.581 µM), 0.102; in experiment [3] (first compound 5 µM), 0.0855; in experiment [4] (first compound 0.05 µM), 0.552; in experiment [4] (first compound 0.1581 µM), 0.516; in experiment [4] (first compound 0.5 µM), 0.195. In addition, the relative viability stood at 0.0846 in experiment [4] (first compound 1.581 µM) and 0.078 in experiment [4] (first compound 5 µM).

SK-MES-1: the relative viability in experiment [1] (first compound 0.05 µM) came to 0.892; in experiment [1] (first compound 0.1581 µM), 0.877; in experiment [1] (first compound 0.5 µM), 0.518; in experiment [1] (first compound 5 µM), 0.667; in experiment [2] (first compound 0.05 µM) it was 0.924; in experiment [2] (first compound 0.1581 µM), 0.883. Also, the relative viability came out at 0.639 in experiment [2] (first compound 0.5 µM); 0.148 in experiment [2] (first compound 1.581 µM); 0.553 in experiment [2] (first compound 5 µM); 0.903 in experiment [3] (first compound 0.05 µM); 0.829 in experiment [3] (first compound 0.1581 µM); 0.419 in experiment [3] (first compound 0.5 µM). Besides, the relative viability in experiment [3] (first compound 1.581 µM) is 0.195; in experiment [3] (first compound 5 µM), 0.167; in experiment [4] (first compound 0.05 µM) it was 0.62; in experiment [4] (first compound 0.1581 µM), 0.526; in experiment [4] (first compound 0.5 µM), 0.309; in experiment [4] (first compound 1.581 µM) it was 0.165. Further, the relative viability in experiment [4] (first compound 5 µM) amounted to 0.186.

As for NCI-H1666, the relative viability is 0.927 in experiment [1] (first compound 0.05 µM); 0.832 in experiment [1] (first compound 0.1581 µM); 0.507 in experiment [1] (first compound 0.5 µM); 0.393 in experiment [1] (first compound 1.581 µM); 0.354 in experiment [1] (first compound 5 µM); 1.22 in experiment [2] (first compound 0.05 µM). The relative viability in experiment [2] (first compound 0.1581 µM) was 0.834; in experiment [2] (first compound 0.5 µM), 0.493; in experiment [2] (first compound 1.581 µM), 0.29; in experiment [2] (first compound 5 µM), 0.292; in experiment [3] (first compound 0.05 µM), 0.827; in experiment [3] (first compound 0.1581 µM), 0.83. Moreover, the relative viability in experiment [3] (first compound 0.5 µM) is 0.651; in experiment [3] (first compound 1.581 µM), 0.52; in experiment [3] (first compound 5 µM), 0.447; in experiment [4] (first compound 0.05 µM), 0.79; in experiment [4] (first compound 0.1581 µM) it was 0.786; in experiment [4] (first compound 0.5 µM) it was 0.622. Further, the values for the relative viability in experiment [4] (first compound 1.581 µM) and in experiment [4] (first compound 5 µM) were 0.56 and 0.466, respectively.
